Paper PMC8742467, “Therapeutical interference with the epigenetic landscape of germ cell tumors: a comparative drug study and new mechanistical insights” (Clinical Epigenetics, 2022)

Columns and labels:
SE (seminoma) cell lines = test: XTT cell viability assay, mean per entity SE; assay type: cell-based; settings: Homo sapiens, after 48 h
Experimental: (§1) The […] (XTT) assays were performed as described previously. In summary, for GCT and fibroblast cell lines 5 × 10^3 cells (3 × 10^3 for UC, PCa and RCC cell lines) per 96-well were seeded and different drug concentrations (see Additional file 2: Fig. S2, Additional file 3: Fig. S3) or corresponding solvents were added to the cells the following day. For drug details see Additional file 12: Table S2 C. Each condition was analyzed in four technical replicates and EC50 values were calculated by GraphPad Prism v8.

[1] = system: EC-R (cisplatin-resistant embryonal carcinoma subclones); test: XTT cell viability assay, mean per entity EC-R; assay type: cell-based; settings: Homo sapiens, after 48 h
Experimental: as §1

GCT cells = test: Flow cytometry cell cycle (PI), GCT cells; assay type: cell-based, Human; settings: EC50, 16 h
In short: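 Apoptosis: cells stained with Annexin V-FITC plus 15 µg PI in binding buffer, 15 min dark at room temperature. Cell cycle: cells fixed in ice-cold 70% ethanol, stained with 2 µg/ml PI and 200 µg/ml RNaseA in PBS. At least 5 × 10^4 cells counted by flow cytometry.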

[2] = system: fibroblasts (MPAF, HVHF2); test: XTT cell viability assay, fibroblasts; assay type: cell-based; settings: Homo sapiens, Fibroblast; after 48 h, mean
Experimental: as §1

[3] = system: CC (choriocarcinoma) cell lines JAR, JEG-3, BeWo; test: XTT cell viability assay, CC cell lines; assay type: cell-based; settings: Homo sapiens; after 48 h, mean per entity
Experimental: as §1

[4] = system: histone modifications in 2102EP cells; test: Mass spectrometry analysis of histone modifications (Mod Spec); assay type: cell-based, Human
In short: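 2102EP cells were treated for 16 h with EC50 concentrations of Quisinostat, JIB-04, Chaetocin, MZ-1, LP99, PRT4165 or GSK343, with DMSO as solvent control. After trypsin harvest, histones were extracted and analysed by mass spectrometry. Raw data were converted to z-scores.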

[5] = system: renal cell carcinoma (RCC) cell lines; test: XTT cell viability assay, RCC cell lines; assay type: cell-based; settings: Homo sapiens, 48 h, mean of three cell lines
Experimental: as §1

JAR (CC) = test: XTT cell viability assay, JAR; assay type: cell-based; settings: Homo sapiens, after 48 h, n = 4, read-out: EC50 colour/symbol code, CC JAR
In short: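 Germ cell tumour and fibroblast lines were seeded at 5 × 10^3 cells per well and, the next day, exposed to a range of drug concentrations or matching solvent. Viability was read by XTT, and EC50 values were fitted from four technical replicates per condition.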

[6] = 2102EP cells, Mod Spec raw data
[7] = 2102EP, EC50, 16 h, vs solvent control

## Cn1cc(CNCC2CCN(c3ncc(C(=O)NO)cn3)CC2)c2ccccc21 [Quisinostat]
SE (seminoma) cell lines
  EC50: 9.48 nM
[1]
  EC50: 7.35 nM
GCT cells
  cell cycle phase accumulation in GCT cells: accumulation in the G2/M phase
[2]
  EC50: > 50 nM
[3]
  EC50: 6.94 nM
[4]; [6]
  H1.4: K25AC, % of peptide pool: 0.02419%
  H1.4: K25ME1, % of peptide pool: 1.754%
  H1.4: K25ME2, % of peptide pool: 0.1017%
  H1.4: K25ME3, % of peptide pool: 0.01896%
  H1.4: K25UN, % of peptide pool: 98.1009%
  H2A1: K13AC, % of peptide pool: 0.02445%
  H2A1: K13UN, % of peptide pool: 99.9755%
  H2A1: K15AC, % of peptide pool: 0.008356%
  H2A1: K15UB, % of peptide pool: 0%
  H2A1: K15UN, % of peptide pool: 99.9916%
  H2A3: K13AC, % of peptide pool: 0.03116%
  H2A3: K13UN, % of peptide pool: 99.9688%
  H2A3: K15AC, % of peptide pool: 0.09989%
  H2A3: K15UB, % of peptide pool: 0%
  H2A3: K15UN, % of peptide pool: 99.9001%
  H2A: K5AC, % of peptide pool: 30.5025%
  H2A: K5UN, % of peptide pool: 69.4975%
  H2A: K9AC, % of peptide pool: 4.727%
  H2A: K9UN, % of peptide pool: 95.2735%
  H2A: K36AC, % of peptide pool: 0.03623%
  H2A: K36UN, % of peptide pool: 99.9638%
  H3: K9AC, % of peptide pool: 3.623%
  H3: K9ME1, % of peptide pool: 30.7914%
  H3: K9ME2, % of peptide pool: 27.5315%
  H3: K9ME3, % of peptide pool: 2.296%
  H3: K9UN, % of peptide pool: 35.7584%
  H3: K14AC, % of peptide pool: 58.3927%
  H3: K14UN, % of peptide pool: 41.6073%
  H3: K18AC, % of peptide pool: 38.2845%
  H3: K18ME1, % of peptide pool: 0.1021%
  H3: K18UN, % of peptide pool: 61.6134%
  H3: K23AC, % of peptide pool: 46.4415%
  H3: K23ME1, % of peptide pool: 0.02903%
  H3: K23UN, % of peptide pool: 53.5295%
  H3: K56AC, % of peptide pool: 0.1713%
  H3: K56ME1, % of peptide pool: 1.011%
  H3: K56UN, % of peptide pool: 98.8174%
  H3: K64AC, % of peptide pool: 0.03095%
  H3: K64UN, % of peptide pool: 99.9691%
  H3: K79AC, % of peptide pool: 0.6776%
  H3: K79ME1, % of peptide pool: 18.2028%
  H3: K79ME2, % of peptide pool: 5.702%
  H3: K79ME3, % of peptide pool: 13.4482%
  H3: K79UN, % of peptide pool: 61.9691%
  H3: K122AC, % of peptide pool: 0.1638%
  H3: K122UN, % of peptide pool: 99.8362%
  H3: Q19ME1, % of peptide pool: 0.00624%
  H3: Q19UN, % of peptide pool: 99.9938%
  H3: Q55ME1, % of peptide pool: 0.3096%
  H3: Q55UN, % of peptide pool: 99.6904%
  H3: R42ME2, % of peptide pool: 2.863%
  H3: R42UN, % of peptide pool: 97.1374%
  H3: R49ME2, % of peptide pool: 6.457%
  H3: R49UN, % of peptide pool: 93.5429%
  H3R2UN: K4AC, % of peptide pool: 0.2031%
  H3R2UN: K4ME1, % of peptide pool: 23.4933%
  H3R2UN: K4ME2, % of peptide pool: 0.2912%
  H3R2UN: K4ME3, % of peptide pool: 0.05363%
  H3R2UN: K4UN, % of peptide pool: 75.9587%
  H3R2UN: Q5ME1, % of peptide pool: 0.06645%
  H3R2UN: Q5UN, % of peptide pool: 99.9336%
  H3.1: K27AC, % of peptide pool: 8.049%
  H3.1: K27ME1, % of peptide pool: 45.2407%
  H3.1: K27ME2, % of peptide pool: 17.0794%
  H3.1: K27ME3, % of peptide pool: 2.551%
  H3.1: K27UN, % of peptide pool: 27.08%
  H3.1: K36AC, % of peptide pool: 0.2956%
  H3.1: K36ME1, % of peptide pool: 12.4481%
  H3.1: K36ME2, % of peptide pool: 50.5827%
  H3.1: K36ME3, % of peptide pool: 20.2944%
  H3.1: K36UN, % of peptide pool: 16.3791%
  H3.3: K27AC, % of peptide pool: 13.7879%
  H3.3: K27M, % of peptide pool: 0%
  H3.3: K27ME1, % of peptide pool: 42.1096%
  H3.3: K27ME2, % of peptide pool: 14.1824%
  H3.3: K27ME3, % of peptide pool: 5.8099%
  H3.3: K27UN, % of peptide pool: 24.1102%
  H3.3: K36AC, % of peptide pool: 4.027%
  H3.3: K36ME1, % of peptide pool: 9.936%
  H3.3: K36ME2, % of peptide pool: 52.9264%
  H3.3: K36ME3, % of peptide pool: 21.2958%
  H3.3: K36UN, % of peptide pool: 11.8156%
  H4: K5AC, % of peptide pool: 13.3396%
  H4: K5UN, % of peptide pool: 86.6604%
  H4: K8AC, % of peptide pool: 32.6787%
  H4: K8UN, % of peptide pool: 67.3213%
[4]; 2102EP cells, Mod Spec raw data, histone H4 K12 acetylated
  H4: K12AC, % of peptide pool: 21.736 % of peptide pool
[4]; 2102EP cells, Mod Spec raw data, histone H4 K12 unmodified
  H4: K12UN, % of peptide pool: 78.264 % of peptide pool
[4]; 2102EP cells, Mod Spec raw data, histone H4 K16 acetylated
  H4: K16AC, % of peptide pool: 69.3546 % of peptide pool
[4]; 2102EP cells, Mod Spec raw data, histone H4 K16 unmodified
  H4: K16UN, % of peptide pool: 30.6454 % of peptide pool
[4]; 2102EP cells, Mod Spec raw data, histone H4 K20 acetylated
  H4: K20AC, % of peptide pool: 15.0365 % of peptide pool
[4]; 2102EP cells, Mod Spec raw data, histone H4 K20 dimethylated
  H4: K20ME2, % of peptide pool: 57.6801 % of peptide pool
[4]; 2102EP cells, Mod Spec raw data, histone H4 K20 monomethylated
  H4: K20ME1, % of peptide pool: 5.018 % of peptide pool
[4]; 2102EP cells, Mod Spec raw data, histone H4 K20 trimethylated
  H4: K20ME3, % of peptide pool: 3.192 % of peptide pool
[4]; 2102EP cells, Mod Spec raw data, histone H4 K20 unmodified
  H4: K20UN, % of peptide pool: 19.0735 % of peptide pool
[4]; [7]
  change of histone modifications of the expected mode of action (Mod Spec): strong accumulation of histone acetylation on histones H3 and H4
  off-target changes of histone modifications (Mod Spec): increase in histone methylation (H3K4me1, H3.3K27me3, H3K56me1, H4K20me1/3)
[5]
  EC50: > 50 nM
JAR (CC)
  EC50: < 1000 nM
